Source: patent publication US20220125746A1, “METHOD OF PREVENTING OR TREATING TREATMENT-INDUCED GASTROINTESTINAL INJURY” (priority 2019, published 2022)
Where a name gives a salt, the structure may show the parent alone.

What was measured:
PUMA/BCL-xL = target: T1, PUMA/BCL-xL (Homo sapiens, UniProt Q9BXH1); experiment: Immunoprecipitation of HA-PUMA / V5-Bcl-xL from 293 lysates; format: binding; details: 25 uM, 15 min, anti-HA immunoprecipitation, western blot
T1 construct: expressed in transfected cells; host or cells: HEK293 (human embryonic kidney 293) cells, Lipofectamine 2000; lysates used
T1 sequence (Q9BXH1 1-193): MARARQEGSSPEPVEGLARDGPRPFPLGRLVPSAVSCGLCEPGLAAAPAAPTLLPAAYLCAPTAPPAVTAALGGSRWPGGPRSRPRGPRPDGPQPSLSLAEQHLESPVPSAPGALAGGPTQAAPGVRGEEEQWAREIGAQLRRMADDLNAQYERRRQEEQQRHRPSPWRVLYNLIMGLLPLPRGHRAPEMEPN
Procedure: (§1) (FIG. 10A) Structure of the PUMA inhibitor lead compound (PUMAi). (FIG. 10B) Lysates of 293 cells transfected with individual plasmids for 24 hours were mixed in the indicated combinations. Lysates were incubated with vehicle or PUMA inhibitor (PUMAi, 25 μM) for 15 min before immunoprecipitation with an anti-HA antibody. The HA-bound proteins and input were analyzed by western blotting. (FIG. 10C) Lysates of 293 cells transfected with individual plasmids for 24 h were mixed in the indicated combinations. Lysates were incubated with vehicle or PUMA Inhibitor (PUMAi, 25 μM) for 15 min before immunoprecipitation with an anti-HA antibody. The HA-bound proteins and input were analyzed by western blotting. (FIG. 10D) Indicated colon cancer cell lines were treated with camptothecin (CPT, 500 nM) for 24 h. HCT 116 cells and PUMA KO HCT 116 cells have WT p53, others have no (KO) or mutant p53. Apoptosis was measured by nuclear fragmentation assay. Values are mean+SEM; n=3 independent experiments. (FIG. 10E) Cells were treated as in D for 24 h and analyzed by western blotting. Representative results are shown, and similar results were obtained in at least three independent experiments. […]

[1] = tested on: colon cancer cell lines HCT 116, p53 KO, HT29, SW480, DLD1, PUMA KO; experiment: CPT-induced apoptosis in colon cancer cell lines (nuclear fragmentation assay); format: cell-based, human; details: CPT 500 nM 24 h, PUMAi 25 uM; p53 WT, null, mutant or PUMA null lines
Procedure: as §1, with “HCT 116 cells and PUMA KO HCT 116 cells have WT p53, others have no (KO) or mutant p53.” left out, “Values are mean+SEM; n=3 independent experiments.” left out, “blotting.” for “blotting. Representative results are shown, and similar results were obtained in at least three independent experiments.”
After treatment, floating and adhering cells were collected and stained in a solution containing 3.7% formaldehyde, 0.5% NP-40, and Hoechst 33258 (10 ug/ml) (Molecular Probes) in PBS. Apoptosis was assessed through microscopic visualization of condensed and fragmented nuclei, as previously described (Yu J. et al., Proc Natl Acad Sci USA (2003) 100:1931-36, incorporated herein by reference). A minimum of 300 cells per treatment were analyzed in triplicate. […]

WT mice = experiment: Survival after total body irradiation; format: in vivo, mouse; details: 9.5 and 15 gray TBI; PUMAi 10 mg/kg 30 min before and after, then daily for 4 days
Procedure: (FIG. 12A) and (FIG. 12B) Survival of WT mice treated with 3 daily doses of 180 mg/kg/day (A) and 250 mg/kg/day (B) CPT-11, respectively, on days 0, 1, and 2. PUMAi (10 mg/kg) was given 2 hours before each dose of CPT-11 and 20 hours after the final dose. (FIG. 12C) and (FIG. 12D) Survival of WT mice after total body irradiation (TBI) at 9.5 Gy (FIG. 12C) and 15 Gy (FIG. 12D). PUMAi (10 mg/kg) was given 30 min before and 30 min after TBI, and then daily for 4 days. Survivors at 9.5 Gy TBI in C were sacrificed on day 40 with no obvious health problems. P values were calculated by log-rank test.

[2] = tested on: colon cancer cell line DLD1; experiment: PUMA-induced apoptosis inhibition in DLD1
Procedure: PUMAi was added to cells at 25 uM at the same time as CPT.

intestinal crypts = experiment: CPT-11-induced intestinal crypt apoptosis in mice (TUNEL, active caspase-3)
Procedure: Puma+/+ (WT) and Puma−/− (Puma KO) mice (52) were generated in-house by heterozygote breeding. WT and Puma KO alleles were genotyped from genomic DNA isolated from tail snips, as described (52). p53−/− (p53 KO) mice were purchased from the Jackson Laboratory. […] All strains are in or have been backcrossed with the C57BL/6 background for more than 10 generations (F10). Mice were housed in microisolator cages in a room illuminated from 07:00 to 19:00 hours (12:12-hour light/dark cycle), with access to water and chow ad libitum.
Rehydrated sections were treated with 3% hydrogen peroxide (immunochemistry only), followed by antigen retrieval for 10 min in boiling 0.1 M citrate buffer (pH 6.0) with 1 mM EDTA. Apoptosis was analyzed by TUNEL staining with the ApopTag Peroxidase In Situ Apoptosis Detection kit (Chemicon International) according to the manufacturer's instructions.
Active caspase 3 IHC. Sections were deparaffinized and rehydrated through graded ethanols. Rehydrated sections were then treated with 3% hydrogen peroxide, followed by antigen retrieval for 10 minutes in boiling 0.1 M citrate buffer (pH 6.0) with 1 mM EDTA. Non-specific antibody binding was blocked using 20% goat serum (Invitrogen) at room temperature for 30 minutes.

Procedure for LGR5+ stem cells: WT and Puma KO mice carrying the Lgr5-EGFP-IRES-creERT2 marking allele were treated with CPT-11 and PUMAi over 2 weeks as in FIGS. 5A-5G and analyzed for intestinal phenotypes. (FIG. 6A) GFP (LGR5) immunofluorescence in intestinal crypts. Arrows indicate LGR5^+ (GFP) crypts. Scale bar, 100 um. (FIG. 6B) Quantitation of intestinal crypts containing at least one GFP^+ (LGR5^+) cell. (FIG. 6C) Top: Olfm4 RNA ISH in intestinal crypts. Scale bar, 50 um. Asterisks indicate Olfm4+ crypt cells. Bottom: Percentage of crypts containing at least one Olfm4+ cell. (FIG. 6D) MMP7 immunofluorescence in intestinal crypts. Scale bar, 100 um. (FIG. 6E) Quantitation of MMP7+ crypt cells at the crypt base (CBC region). (FIG. 6F) Top: GFP (LGR5) and MMP7 immunofluorescence in intestinal crypts. Scale bar, 20 um. Asterisks indicate LGR5^+/MMP7^+ cell pairs. Bottom: Quantitation of LGR5^+/MMP7^+ cell pairs per crypt. In (FIG. 6A), (FIG. 6D), and (FIG. 6F), DAPI was used to stain nuclei. In (FIG. 6B), (FIG. 6C), (FIG. 6E), and (FIG. 6F), values are means+SEM; n=3 mice. *P<0.05, **P<0.01, and ***P<0.001 (one-way ANOVA with Tukey post hoc test).
LGR5 (GFP) IF. Sections were deparaffinized and rehydrated through graded ethanols. Antigen retrieval was performed by boiling for 10 minutes in 0.1 M citrate buffer (pH 6.0) with 1 mM EDTA. Non-specific antibody binding was blocked using 20% goat serum (Invitrogen) at room temperature for 30 min. […] Sections were then washed in PBS and mounted with VectaShield+DAPI (Vector Labs).
MMP7 IF. Sections were prepared as described above. Non-specific antibody binding was blocked using 20% chicken serum (Invitrogen) at room temperature for 30 min. Sections were washed in PBS and incubated overnight at 4 °C in a humidified chamber with 1:100 diluted goat anti-MMP7 (AF2967; R&D Systems). […] Sections were then washed in PBS and mounted with VectaShield+DAPI (Vector Labs) for visualization.
LGR5(GFP)/1VIMP7 IF. Sections were prepared as described above. Non-specific antibody binding was blocked using 20% chicken serum (Invitrogen) at room temperature for 30 min. Sections were then stained for GFP as described above, followed by staining for MMP7 as described.
ISH for Olfm4 was carried out with the RNAscope 2.0 BROWN kit (Advanced Cell Diagnostics) according to the manufacturer's instructions. Briefly, tissue sections were baked for 60 min at 60 ÅåC, then deparaffinized in xylene, and rehydrated through graded ethanols. Sections then underwent three pretreatment steps, probe hybridization, six amplification steps, development, and counterstaining.

OCCN1CCN(CC(O)COc2ccc3ccccc3c2)CC1 (stereo not drawn) [PUMAi, 1-[4-(2-hydroxyethyl)-1-piperazinyl]-3-(2-naphthyloxy)-2-propanol dihydrochloride]
inhibition of PUMA/BCL-xL interaction (PUMA/BCL-xL): inhibit interaction of PUMA/BCL-xL | camptothecin (CPT)-induced apoptosis in colon cancer cell lines [1]: did not reduce camptothecin (CPT)-induced apoptosis | survival after total body irradiation (WT mice): increased the survival | Apoptosis inhibition of DLD1 [2]: 39% | drop in Olfm4+ crypts (RNA ISH) (LGR5+ stem cells; after six doses of CPT-11): 49% | loss and mislocalization of MMP7+ cells and of MMP7+/LGR5+ contact (LGR5+ stem cells; repeated CPT-11 treatment): suppressed | crypt apoptosis, PUMAi given after CPT-11 (intestinal crypts; PUMAi 10 mg/kg 1 hour after CPT-11 200 mg/kg, 6 h): still reduced apoptosis effectively | TUNEL and active caspase-3 staining in crypts (intestinal crypts; PUMAi 10 mg/kg 2 h before CPT-11 200 mg/kg, 6 and 24 h, WT mice): reduced TUNEL and active caspase-3 staining preferentially in the CBCs | crypt apoptosis in Puma KO mice (intestinal crypts; Puma KO mice, CPT-11 200 mg/kg, 6 h): did not further reduce crypt apoptosis
